Data on 9 compounds can be found in patent publication US20100152259A1 (Merck & Co Inc., priority 2006, published 2010).

The structures appear in SMILES notation.

This assay has as its system rabbit aortic slices. Kind of assay: vessel relaxation assay (tissue-based, rabbit aortic slices). The assay is classed as cell-based. As to conditions: Oryctolagus cuniculus.

The compound `CCOc1nc2cccc(C(=O)OC(C)(C)OC(=O)OCCCCC(CO[N+](=O)[O-])O[N+](=O)[O-])c2n1Cc1ccc(-c2ccccc2-c2nnn[nH]2)cc1` (stereo not drawn) [Example 8, 1-[({[5,6-bis(nitrooxy)hexyl]oxy}carbonyl)oxy]-1-methylethyl 2-ethoxy-1-{[2′-(1H-tetrazol-5-yl)biphenyl-4-yl]methyl}-1H-benzimidazole-7-carboxylate] yielded an EC50 of 370 nM.

`CCCCc1nc(Cl)c(C(=O)OC(C)OC(=O)OCCCC[C@H](CO[N+](=O)[O-])O[N+](=O)[O-])n1Cc1ccc(-c2ccccc2-c2nn[nH]n2)cc1` (single isomer, unassigned) [Compound 2]: a half-maximal effect (EC50) was put at 1000 nM.

`CCOc1nc2cccc(C(=O)OC(C)(C)OC(=O)OCC[C@@H](CO[N+](=O)[O-])O[N+](=O)[O-])c2n1Cc1ccc(-c2ccccc2-c2nnn[nH]2)cc1` [Example 12, 1-[({[(3S)-3,4-bis(nitrooxy)butyl]oxy}carbonyl)oxy]-1-methylethyl 2-ethoxy-1-{[2′-(1H-tetrazol-5-yl)biphenyl-4-yl]methyl}-1H-benzimidazole-7-carboxylate] gave an EC50 of 3730 nM.

As for `CCOc1nc2cccc(C(=O)OC(C)(C)OC(=O)OCCCC[C@H](CO[N+](=O)[O-])O[N+](=O)[O-])c2n1Cc1ccc(-c2ccccc2-c2nnn[nH]2)cc1` [Example 9, 1-[({[(5R)-5,6-bis(nitrooxy)hexyl]oxy}carbonyl)oxy]-1-methylethyl 2-ethoxy-1-{[2′-(1H-tetrazol-5-yl)biphenyl-4-yl]methy}-1H-benzimidazole-7-carboxylate], the EC50 is 990 nM.

`CCCCc1nc(Cl)c(C(=O)OC(C)OC(=O)OCCOCC(CO[N+](=O)[O-])O[N+](=O)[O-])n1Cc1ccc(-c2ccccc2-c2nnn[nH]2)cc1` (stereo not drawn) [Compound 3]: the EC50 was determined as 5000 nM.

`CCOc1nc2cccc(C(=O)OC(C)(C)OC(=O)OCCOCC(CO[N+](=O)[O-])O[N+](=O)[O-])c2n1Cc1ccc(-c2ccccc2-c2nnn[nH]2)cc1` (stereo not drawn) [Example 10] showed an EC50 of 2380 nM.

With `CCOc1nc2cccc(C(=O)OC(C)(C)OC(=O)OCCOC[C@H](CO[N+](=O)[O-])O[N+](=O)[O-])c2n1Cc1ccc(-c2ccccc2-c2nnn[nH]2)cc1` [Example 11, 1-{[(2-{[(2R)-2,3-bis(nitrooxy)propyl]oxy}ethoxy)carbonyl]oxy}-1-methylethyl 2-ethoxy-1-{[2′-(1H-tetrazol-5-yl)biphenyl-4-yl]methyl}-1H-benzimidazole-7-carboxylate], it took 2300 nM to reach a half-maximal effect (EC50).

The compound `CCCCc1nc(Cl)c(C(=O)OC(C)OC(=O)OCCC(C)(C)CC(CO[N+](=O)[O-])O[N+](=O)[O-])n1Cc1ccc(-c2ccccc2-c2nnn[nH]2)cc1` (stereo not drawn) [Example 4, 1-[({[3,3-dimethyl-5,6-bis(nitrooxy)hexyl]oxy}carbonyl)oxy]ethyl 2-butyl-4-chloro-1-{[2′-(1H-tetrazol-5-yl)biphenyl-4-yl]methyl}-1H-imidazole-5-carboxylate] registered an EC50 of 1100 nM.

On to `CCCCc1nc(Cl)c(C(=O)OCCOCCO[N+](=O)[O-])n1Cc1ccc(-c2ccccc2-c2nn[nH]n2)cc1` [Compound 1, reference compound], for which the midpoint of the response, the EC50, lay at 6000 nM.

What is called EC50 is the concentration that produces a half-maximal response. Read a low EC50 as a more potent agent.
